For test [1], the system named is IL-6 production from human synovial cells. Put plainly: Inhibitory activity on IL-6 production from human synovial cells (IL-1β stimulated, ELISA). The class given is cell-based. The conditions noted are these: Synovial cell, synovial cells from rheumatoid arthritis patients, IL-1β stimulation, 24 hours, read-out: 50% inhibitory concentration (IC50) on IL-6 production. The protocol:
(2) The Measurement of an Inhibitory Activity on IL-6 Production from Human Synovial Cells
3.0×10^3 of synovial cells from rheumatoid arthritis patients were suspended in 200 μL of DMEM containing 10% FBS and incubated for a day and night in 96 well-microplate, followed by the incubation for 5 hours in serum-free DMEM. 20 μL of the test compound dissolved in DMSO at various concentrations and 80 μL of interleukin-1β (IL-1β (Genzyme Co., cat. No. 80-3688-01)) dissolved in DMEM containing 2.5% fetal bovine serum at the concentration of 5 ng/mL were added thereto. After the incubation for 24 hours, the supernatant (100 μL) was collected to measure the amount of IL-6 being produced using ELISA (R&D Systems Co., cat. No. D6050). Then the inhibitory activity of the test compound was calculated and the 50% inhibitory concentration (IC50) was determined.
A general note: ELISA stands for enzyme-linked immunosorbent assay.

Test [2] has as its system IL-6 production from A549 cells. The test is described as follows: Inhibitory activity on IL-6 production from A549 cells (TNF-α stimulated, ELISA). The class given is cell-based. As to conditions: A549 cells (human lung epithelial cell line), TNF-α stimulation, 24 hours, read-out: 50% inhibitory concentration (IC50) on IL-6 production. The protocol:
(1) The Measurement of an Inhibitory Activity on IL-6 Production from A549 Cells
1.5×10^4 of A549 cells (human lung epithelial cell line) were suspended in 100 μL of Dulbecco's Modified Eagle Medium (DMEM) containing 0.5% fetal bovine serum (abbreviated as FBS) and incubated for a day and night in 96 well-microplate. 20 μL of the test compound dissolved in dimethylsulfoxide (DMSO) at various concentrations and 80 μL of tumor necrosis factor-α (TNF-α (Genzyme Co., cat. No. TNF-H)) dissolved in serum-free DMEM at the concentration of 12.5 ng/mL were added thereto. After the incubation for 24 hours, the supernatant (100 μL) was collected to measure the amount of IL-6 being produced using enzyme linked immuno […] assay (ELISA) (R&D Systems Co., cat. No. D6050). Then the inhibitory activity of the test compound was calculated and the 50% inhibitory concentration (IC50) was determined.

The structures appear in SMILES notation.

On to `O=C(CCCC[C@@H](O)c1ccc(-c2ccc(Cl)cc2)cc1)NO` [example 3], for which the IC50 in test [1] worked out at 41 nM; in test [2] it was 52 nM.

Values taken from patent US6770644B1, “Hydroxamic acid derivatives, process for the production thereof and drug containing the same as the active ingredient” (Ono Pharmaceuticals Co., Ltd., priority 1999, dated 2004).
